Assay results taken from publication PMC10582335 (Frontiers in Pharmacology, 2023).
Where two headings read alike, the source gives them in different places. Values belong to the molecule of their own block, whether it stands above or below them.

Experiments:
[1] = test system: Abcb1a mRNA (P-gp); assay: qRT-PCR of mRNA expression in rat tissues after multiple-dose almonertinib; format: in vivo; conditions: rats given almonertinib for nine consecutive days, n = 3
Experimental: Sixty healthy rats were randomly divided into ten groups (n = 6). […] Blood samples were centrifuged at 3,500 g for 10 min, and then the supernatant was gathered and stored in a -80°C refrigerator. After, rat intestine, kidney and liver tissues were harvested for molecular analysis on the ninth or fifth day after treatment with the corresponding drugs for each group. The tissues were placed immediately at -80°C. qRT-PCR analysis was used to determine mRNA levels of Abcb1a, Abcg2 and Cyp3a1 in the liver and intestines, and Abcb1a and Abcg2 in the kidney of rats. Total RNA was isolated from frozen liver, intestine and kidney samples using TRNzol Universal according to the manufacturer's instructions. A Bio Tek Epoch (Bio Tek Instruments, Inc., Winooski, VT, United States) was employed to quantify the purity and concentration of the total RNA based on the ratio of the absorbance between 260 and 280 nm. RNA samples of 1 μg were transformed to complementary DNA (cDNA) using the […] Kit. The real-time PCR assays were accomplished using a two-step amplification method based on the recommendations in a SLAN-96S Real-Time PCR system (Shanghai Hongshi Medical Technology Co., Ltd. Shanghai, China). […] was used as an internal control, and the PCR cycling criteria were as follows: 95°C for 15 min, then 40 cycles of 95°C for 10, and 60°C for 32 s.

[2] = Pharmacokinetics of rivaroxaban in rats, alone and after multiple doses of almonertinib; format: in vivo, Sprague-Dawley (SD) rats; conditions: for AUC(0-inf) / Cmax / Tmax / CL/F / MRT last / MRT inf / Vd/F: po; for CL/F: read-out: CLz/F (converted); for MRT last: read-out: MRT0-t; for MRT inf: read-out: MRT0-∞; for Vd/F: read-out: Vz/F; for half-life: read-out: t1/2z (converted)
Experimental: Analytes were measured using UPLC-MS/MS, which was equipped with an LC-30A ultra-performance liquid chromatography (Shimadzu, Kyoto, Japan) and Sciex Triple Quad 5,500 tandem triple quadrupole mass spectrometer (AB Sciex, Framingham, MA, United States). Chromatographic separation was performed using an XSelect HSS T3 column (2.1 mm × 100 mm, 2.5 µm, Waters, Milford, MA, United States) at 40°C by gradient elution. The mobile phase consisted of water (A) and acetonitrile (0.1% formic acid, B). The elution procedure was as follows: 0–1.0 min, 50% B; 1.0–1.5 min, 50%→98% B; 1.5–3.0 min, 98% B; 3.0–3.1 min, 98%→50% B; 3.1–4.1 min, 50% B. The flow rate was 0.35 mL min^−1, and the injection volume was 6 µL.
The positive ion mode with multiple reaction detection was used. […] The mass spectrometer conditions, including delustering potential (DP) and collision energy (CE) of the compounds, are shown in Table 1. Other parameters of the mass spectrometer were as follows: ion source gas 1, 60.0 psi; ion source gas 2, 50.0 psi; curtain gas, 25.0 psi; source temperature, 500°C; ion spray voltage, 5,500 V.
Protein precipitation was used to process the plasma samples. 5 μL of mixed IS working solution, 50 µL of the plasma samples, and 150 µL of acetonitrile were vortex-mixed for 1.0 min. Then, the mixture was centrifuged at 13,000 × g for 10 min; 100 µL of 50% acetonitrile-water was added to 100 µL of supernatant, vortex-mixed, and centrifuged again. The supernatant was transferred to a 96-well plate for sample analysis.
Healthy male Sprague-Dawley (SD) rats weighing 250 ± 20 g were purchased from Beijing Huafukang Biotechnology Co., Ltd. (Beijing, China). The license number is SCXK (Beijing) 2019–0008. The study was approved and supervised by the Animal Ethics Committee of Hebei General Hospital (Shijiazhuang, China) (No. 2023024). Adaptive feeding (sufficient food and water) was performed for 1 week before the experiment. All the rats were kept under suitable conditions (12 h dark-light diurnal cycle, appropriate temperature at 23°C–25°C, relative humidity of 50% ± 10%). All rats were fasted for 12 h before starting the experiments while still given water.
Sixty healthy rats were randomly divided into ten groups (n = 6). […] Blood samples were centrifuged at 3,500 g for 10 min, and then the supernatant was gathered and stored in a −80°C refrigerator. After, rat intestine, kidney and liver tissues were harvested for molecular analysis on the ninth or fifth day after treatment with the corresponding drugs for each group. The tissues were placed immediately at −80°C.
DAS 2.1.1 Software (Mathematical Pharmacology Professional Committee of China, Shanghai, China) was applied to calculate pharmacokinetic parameters using non-compartmental analysis. SPSS 25.0 statistical software (SPSS Inc., Chicago, IL, United States) was applied to statistically analyze the main pharmacokinetic parameters, including AUC, Cmax, Tmax, t1/2, CLz/F, Vz/F, and MRT. Statistical comparisons were conducted using a analysis of variance, t-test or nonparametric rank-sum test depending on the data type; p-value <0.05 was deemed statistically significant.

[3] = male, Sprague-Dawley, rat, plasma, 1 mg/kg, rats, oral rivaroxaban 1 mg/kg after almonertinib 15 mg/kg for nine days (group 6), mean ± SD, n = 6
[4] = male, Sprague-Dawley, rat, plasma, 2 mg/kg, rats, oral rivaroxaban 2 mg/kg after almonertinib 15 mg/kg for nine days (group 5), mean ± SD, n = 6
[5] = male, Sprague-Dawley, rat, plasma, 2 mg/kg, rats, oral rivaroxaban 2 mg/kg alone (group 1), mean ± SD, n = 6
[6] = rats, oral rivaroxaban 2 mg/kg after almonertinib 15 mg/kg for nine days (group 5), mean ± SD, n = 6
[7] = rivaroxaban 1 mg/kg with multiple doses of almonertinib (group 6) compared to group 1, rats
[8] = rivaroxaban 2 mg/kg with multiple doses of almonertinib (group 5) compared to group 1, rats

SMILES: C=CC(=O)Nc1cc(Nc2nccc(-c3cn(C4CC4)c4ccccc34)n2)c(OC)cc1N(C)CCN(C)C [almonertinib, Almonertinib]
- inhibition of mRNA expression of Abcb1a ([1]; intestine): 51.3%
- inhibition of mRNA expression of Abcb1a ([1]; kidney): 42.9%

- increase of AUC of rivaroxaban ([2]; after a half dose reduction of rivaroxaban, multiple doses of almonertinib, rats (discussion)): ~1.9 fold
- increase of AUC of rivaroxaban ([2]; co-administration with almonertinib for multiple doses, rats (discussion, AUC not specified further)): more than 3.0 fold
- AUC(0-inf) [2, 3]: 2230 ng·h/mL
- Cmax [2, 3]: 457 ± 101 ng/mL
- Tmax [2, 3]: 2.08 ± 0.49 h
- CL/F [2, 3]: 7.83 mL/min/kg
- MRT last [2, 3]: 4.1 ± 0.41 h
- MRT inf [2, 3]: 4.3 ± 0.47 h
- Vd/F [2, 3]: 2.83 ± 0.55 L/kg
- AUC(0-inf) [2, 4]: 3540 ng·h/mL
- Cmax [2, 4]: 862 ± 110 ng/mL
- Tmax [2, 4]: 2.21 ± 0.95 h
- CL/F [2, 4]: 10 mL/min/kg
- MRT last [2, 4]: 3.94 ± 0.56 h
- MRT inf [2, 4]: 4.12 ± 0.6 h
- Vd/F [2, 4]: 3.75 ± 0.72 L/kg
- AUC(0-inf) [2, 5]: 797 ± 169 ng·h/mL
- Cmax [2, 5]: 200 ± 38 ng/mL
- Tmax [2, 5]: 0.92 ± 0.3 h
- CL/F [2, 5]: 43.7 mL/min/kg
- MRT last [2, 5]: 4.72 ± 0.57 h
- MRT inf [2, 5]: 6.09 ± 1.45 h
- Vd/F [2, 5]: 26.4 ± 18 L/kg
- AUC(0-t) ([2]; male, Sprague-Dawley, rat, plasma, rats, oral rivaroxaban 1 mg/kg after almonertinib 15 mg/kg for nine days (group 6), mean ± SD, n = 6, read-out: AUC0-t): 2220 ng·h/mL
- half-life ([2]; male, Sprague-Dawley, rat, plasma, rats, oral rivaroxaban 1 mg/kg after almonertinib 15 mg/kg for nine days (group 6), mean ± SD, n = 6): 4.3 ± 0.91 h
- AUC(0-t) ([2]; male, Sprague-Dawley, rat, plasma, rats, oral rivaroxaban 2 mg/kg alone (group 1), mean ± SD, n = 6, read-out: AUC0-t): 764 ± 164 ng·h/mL
- half-life ([2]; male, Sprague-Dawley, rat, plasma, rats, oral rivaroxaban 2 mg/kg alone (group 1), mean ± SD, n = 6): 6.84 ± 3.46 h
- AUC(0-t) [2, 6]: 3,511.15 ± 783.84 μg/L*h
- t1/2z [2, 6]: 4.47 ± 0.80 h
- Tmax of rivaroxaban longer than control [2, 7]: 1.26 fold
- decrease of CLz/F of rivaroxaban [2, 7]: 4.57 fold
- increase of AUC0-t of rivaroxaban [2, 7]: 1.90 fold
- Tmax of rivaroxaban longer than control [2, 8]: 1.40 fold
- decrease of CLz/F of rivaroxaban [2, 8]: 3.37 fold
- increase of AUC0-t of rivaroxaban [2, 8]: 3.60 fold
- increase of AUC0-∞ of rivaroxaban [2, 8]: 3.44 fold
SMILES: O=C(NC[C@H]1CN(c2ccc(N3CCOCC3=O)cc2)C(=O)O1)c1ccc(Cl)s1 [rivaroxaban, Rivaroxaban]
